Measured values: US12214036B2, “Combination therapy comprising AXL/MER and PD-1/PD-L1 inhibitors” (Incyte Corporation, priority 2020, dated 2025)

Key:
[1] = target: T1, AXL (Homo sapiens, UniProt P30530); experiment: pAXL inhibition assay in H1299 cells (ELISA); type: cell-based; details: rhGAS6 stimulation, N=19 (FIG. 2)
T1 construct: tumor cell lines expressing high levels of endogenous AXL; endogenous in cells; host or cells: H1299
T1 sequence (P30530 26-894): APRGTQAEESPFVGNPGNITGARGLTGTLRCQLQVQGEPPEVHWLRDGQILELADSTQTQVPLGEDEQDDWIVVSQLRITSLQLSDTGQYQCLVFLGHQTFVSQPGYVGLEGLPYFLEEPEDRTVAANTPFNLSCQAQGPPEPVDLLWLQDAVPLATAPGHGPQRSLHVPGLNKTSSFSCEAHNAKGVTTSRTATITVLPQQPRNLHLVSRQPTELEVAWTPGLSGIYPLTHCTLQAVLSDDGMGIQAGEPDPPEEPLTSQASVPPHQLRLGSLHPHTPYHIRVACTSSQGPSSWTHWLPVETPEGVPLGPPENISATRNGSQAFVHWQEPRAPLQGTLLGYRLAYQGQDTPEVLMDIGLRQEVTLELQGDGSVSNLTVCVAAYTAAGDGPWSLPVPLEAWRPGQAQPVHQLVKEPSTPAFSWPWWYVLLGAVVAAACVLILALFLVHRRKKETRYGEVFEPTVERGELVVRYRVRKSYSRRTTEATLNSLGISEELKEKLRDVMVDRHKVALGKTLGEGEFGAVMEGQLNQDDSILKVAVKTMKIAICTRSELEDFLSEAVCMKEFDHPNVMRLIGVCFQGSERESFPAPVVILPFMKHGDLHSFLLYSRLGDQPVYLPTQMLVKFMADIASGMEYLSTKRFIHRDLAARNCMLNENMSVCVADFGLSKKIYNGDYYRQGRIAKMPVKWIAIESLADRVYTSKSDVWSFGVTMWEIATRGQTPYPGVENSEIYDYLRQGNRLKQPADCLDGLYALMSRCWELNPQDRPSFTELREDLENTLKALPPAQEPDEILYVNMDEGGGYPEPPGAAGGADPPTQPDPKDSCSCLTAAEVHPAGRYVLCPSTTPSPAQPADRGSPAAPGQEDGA
Protocol: The ability of Compound 1 to modulate AXL activity was evaluated in tumor cell lines expressing high levels of endogenous AXL.
H1299 cells were plated (30,000 cells/well) in 96-well tissue-culture plates (Costar, Corning Incorporated, Corning, N.Y.) and incubated overnight at 37° C. with 5% CO2. Compound 1 at an appropriate concentration was added and incubated for 1 hour at 37° C. with 5% CO2. rhGAS6 (R&D Systems, Minneapolis, Minn.; #885-GSB) was added at 1 μg/mL to each well, and plates were incubated at 37° C. with 5% CO2 for 15 minutes. Cells were harvested and lysed in 110 μL of ice-cold lysis buffer (Cell Signaling Technology, Danvers, Mass.; #9803) with protease and phosphatase inhibitors (ThermoFisher Scientific; #78446) for 1 hour on ice and stored at −80° C. for ELISA. ELISA plates were prepared by incubating Greiner lumitrac high-binding plates with 8 μg/mL of anti-AXL antibody (R&D Systems; MAB154) overnight at room temperature. The plates were washed and blocked with phosphate buffered saline (PBS) with 0.1% BSA. Cell lysates were loaded onto ELISA plates and incubated 2 hours at room temperature. […] The plates were gently shaken for 15 minutes at room temperature and read on the PheraStar (BMG Labtech). […]

[2] = target: T2, AXL (Homo sapiens, UniProt P30530); experiment: TR-FRET kinase assay, phospho-AXL; type: biochemical; details: average from multiple lots, n=18; read-out: IC50 against AXL
T2 construct: recombinant phosphorylated forms of the kinase domains for AXL, MER and TYRO3; purchased ThermoFisher Scientific PV4275
T2 sequence (P30530 536-807 limits assumed): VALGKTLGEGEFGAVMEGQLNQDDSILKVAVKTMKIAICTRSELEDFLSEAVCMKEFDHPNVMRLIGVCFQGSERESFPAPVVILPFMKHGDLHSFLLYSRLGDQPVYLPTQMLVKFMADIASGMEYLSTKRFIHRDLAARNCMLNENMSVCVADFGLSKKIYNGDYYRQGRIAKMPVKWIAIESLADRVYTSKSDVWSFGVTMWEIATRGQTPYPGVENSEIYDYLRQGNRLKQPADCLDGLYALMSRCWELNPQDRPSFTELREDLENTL
Protocol: The biochemical potency of Compound 1 to inhibit the enzymatic activity of TAM family members was investigated by TR-FRET assays using recombinant phosphorylated forms of the kinase domains for AXL, MER and TYRO3.
Phospho-AXL (pAXL), cMER and Tyro3 kinase activities were measured by time-resolved fluorescence energy transfer (TR-FRET) assays. Autophosphorylation of AXL was carried out before the kinase assay by incubating the recombinant AXL protein (ThermoFisher Scientific; #PV4275) in buffer containing 50 mM Tris, pH 7.5, 0.2 mg/mL AXL, 5 mM ATP, 20 mM MgCl2 and 2 mM dithiothreitol (DTT) at room temperature for 1 hour. The kinase assay buffer contained 50 mM HEPES, pH 7.5, 10 mM MgCl2, 1 mM EGTA, 0.01% NP-40 and 2 mM DTT. Enzyme solutions of 0.69 nM phospho-AXL, or 0.088 nM cMER (Carna Biosciences, Kobe, Japan; #08-108) or 0.137 nM TYRO3 (Life Technologies, PR7480A) were prepared in assay buffer. […] The plate was incubated for 30 minutes at room temperature, and homogenous time resolved fluorescence (HTRF) signal was measured on a PheraStar FS plate reader (BMG Labtech, Ortenberg, Germany). Percent inhibition was calculated for each concentration, and half maximal inhibitory concentration (IC50) value was generated from curve fitting with GraphPad Prism software (San Diego, Calif.).

For CC(C)C(=O)N1CCC(c2cc(-c3ccc(NC(=O)c4cn(C(C)C)c(=O)n(-c5ccccn5)c4=O)cc3)c3c(N)ncnn23)CC1 [Compound 1, N-(4-(4-Amino-7-(1-isobutyrylpiperidin-4-yl)pyrrolo[1,2-f][1,2,4]triazin-5-yl)phenyl)-1-isopropyl-2,4-dioxo-3-(pyridin-2-yl)-1,2,3,4-tetrahydropyrimidine-5-carboxamide], the IC50 [1] was 1.8 ± 0.63 nM and the IC50 [2] was 0.61 ± 0.31 nM.
